How the values were obtained:
[1] = biological target: T1, human LTA4 hydrolase (Homo sapiens, UniProt P09960); experiment: LTA4H Enzyme assay (peptidase, Arg-AMC cleavage); type: biochemical; conditions: LTA4H enzyme 1 nM, Arg-AMC substrate 50 μM, room temperature 1 h, fluorescence 380/460 nm
T1 sequence (P09960 1-611): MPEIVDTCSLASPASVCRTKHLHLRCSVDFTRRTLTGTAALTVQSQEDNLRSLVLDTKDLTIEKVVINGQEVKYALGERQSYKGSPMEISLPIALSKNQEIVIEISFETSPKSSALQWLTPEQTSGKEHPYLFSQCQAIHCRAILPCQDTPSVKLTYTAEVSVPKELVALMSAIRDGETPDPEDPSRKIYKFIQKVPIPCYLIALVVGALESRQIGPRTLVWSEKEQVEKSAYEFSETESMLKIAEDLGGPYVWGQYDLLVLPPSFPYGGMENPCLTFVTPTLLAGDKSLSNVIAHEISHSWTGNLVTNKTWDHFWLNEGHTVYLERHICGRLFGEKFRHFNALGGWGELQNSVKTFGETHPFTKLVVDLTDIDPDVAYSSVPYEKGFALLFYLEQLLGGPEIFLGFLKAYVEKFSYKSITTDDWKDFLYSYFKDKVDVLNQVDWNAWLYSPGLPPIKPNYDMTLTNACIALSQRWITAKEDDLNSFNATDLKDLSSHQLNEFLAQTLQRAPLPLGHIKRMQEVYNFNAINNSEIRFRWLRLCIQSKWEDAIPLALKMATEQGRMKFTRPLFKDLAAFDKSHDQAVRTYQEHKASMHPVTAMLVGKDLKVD
Procedure: The compounds of the invention are assessed for the ability to interact with human LTA4 hydrolase in an enzymatic assay that measures the ability of the enzyme to cleave the peptide bond of arginyl-aminomethylcoumarin (Arg-AMC). LTA4H Enzyme (1 nM final), Arg-AMC substrate (50 μM final), and compound are combined in a reaction buffer (50 mM Tris-HCl (pH 7.5), 100 mM KCl, 0.5% bovine serum albumin) at room temperature for 1 h. The formation of product is assessed by measuring the fluorescence of aminomethylcoumarin product (excitation wavelength 380 nm/emission wavelength 460 nm). In general, the preferred potency range (IC50) of compounds in the LTA4H Enzyme assay is between 0.1 nM to 10 μM, the more preferred potency range is 0.1 nM to 0.1 μM, and the most preferred potency range is 0.1 nM to 10 nM.

[2] = system: LTB4 synthesis in human whole blood; experiment: human whole blood (HWB) assay, inhibition of LTB4 production; type: cell-based; conditions: heparinized human whole blood, calcimycin 20 μM stimulation, plasma LTB4
Procedure: The compounds of the invention are additionally tested in a human whole blood (HWB) assay to determine their ability to inhibit the synthesis of LTB4 in a cellular system. Compounds are combined with heparinized human whole blood and incubated for 15 minutes at 37° C. Calcimycin (20 μM final, prepared in phosphate-buffered saline, pH 7.4) is then added and the mixture is incubated for another 30 minutes at 37° C. The samples are centrifuged for 5 min at low speed (1500×g) and the plasma layer is removed. Plasma LTB4 concentrations are then measured using an antibody-based homogenous time-resolved fluorescence method (CisBio, Bedford, Mass.). In general, the preferred potency range (IC50) of compounds in the HWB assay is between 10 nM to 10 μM, the more preferred potency range is 10 nM to 1 μM, and the most preferred potency range is 10 nM to 100 nM.

| IC50 [1] | IC50 [2] | SMILES |
| --- | --- | --- |
| 0.096 nM | 67 nM | C[C@@H]1CN(Cc2nc3cc(Oc4ccc(-c5ccn[nH]5)cc4)ccc3[nH]2)C[C@H](C)O1 [Example 53, 2-((2R,6S)-2,6-Dimethyl-morpholin-4-ylmethyl)-5-[4-(2H-pyrazol-3-yl)-phenoxy]-1H-benzoimidazole] |
| 0.13 nM | 94 nM | c1cc(-c2ccc(Cc3ccc4nc(CN5CCCC5)[nH]c4c3)cc2)[nH]n1 [Example 54, 6-[4-(2H-Pyrazol-3-yl)-benzyl]-2-pyrrolidin-1-ylmethyl-1H-benzoimidazole] |
| 0.13 nM | 100 nM | C[C@H]1COC[C@H](C)N1Cc1nc2cc(Oc3ccc(-c4ccn[nH]4)cc3)ccc2[nH]1 [Example 55, 2-((3S,5S)-3,5-Dimethyl-morpholin-4-ylmethyl)-5-[4-(2H-pyrazol-3-yl)-phenoxy]-1H-benzoimidazole] |
| 0.18 nM | 110 nM | C[C@H]1CN(Cc2nc3ccc(Cc4ccc(-c5ccn[nH]5)cc4)cc3[nH]2)C[C@H](C)O1 [Example 56, 2-((2S,6S)-2,6-Dimethyl-morpholin-4-ylmethyl)-6-[4-(2H-pyrazol-3-yl)-benzyl]-1H-benzoimidazole] |
| 0.13 nM | 110 nM | O=C(N1CCN(Cc2nc3cc(Oc4ccc(-c5ccn[nH]5)cc4)ccc3[nH]2)CC1)C(F)(F)F [Example 57, 2,2,2-Trifluoro-1-(4-[5-[4-(2H-pyrazol-3-yl)-phenoxy]-1H-benzoimidazol-2-ylmethyl]-piperazin-1-yl)-ethanone] |
| 0.13 nM | 120 nM | c1cc(-c2ccc(Oc3ccc4[nH]c(CN5C[C@@H]6CC[C@@H](C5)O6)nc4c3)cc2)[nH]n1 [Example 58, (1S,5S)-3-{5-[4-(2H-Pyrazol-3-yl)-phenoxy]-1H-benzoimidazol-2-ylmethyl}-8-oxa-3-aza-bicyclo[3.2.1]octane] |
| 0.13 nM | 130 nM | c1cc(-c2ccc(Oc3ccc4[nH]c(C5(N6CCOCC6)CC5)nc4c3)cc2)[nH]n1 [Example 59, 2-(1-Morpholin-4-yl-cyclopropyl)-5-[4-(2H-pyrazol-3-yl)-phenoxy]-1H-benzoimidazole] |
| 0.23 nM | 140 nM | c1cc(-c2ccc(Cc3ccc4nc(CN5CCOCC5)[nH]c4c3)cc2)[nH]n1 [Example 60, 2-Morpholin-4-ylmethyl-6-[4-(2H-pyrazol-3-yl)-benzyl]-1H-benzoimidazole] |
| 0.21 nM | 140 nM | COCCN1CCN(Cc2nc3cc(Oc4ccc(-c5ccn[nH]5)cc4)ccc3[nH]2)CC1 [Example 61, 2-[4-(2-Methoxy-ethyl)-piperazin-1-ylmethyl]-5-[4-(2H-pyrazol-3-yl)-phenoxy]-1H-benzoimidazole] |
| 0.13 nM | 150 nM | C[C@H]1COCCN1Cc1nc2cc(Oc3ccc(-c4ccn[nH]4)cc3)ccc2[nH]1 [Example 62, 2-((S)-3-Methyl-morpholin-4-ylmethyl)-5-[4-(2H-pyrazol-3-yl)-phenoxy]-1H-benzoimidazole] |
| 0.11 nM | 150 nM | FC(F)(F)CN1CCN(Cc2nc3cc(Oc4ccc(-c5ccn[nH]5)cc4)ccc3[nH]2)CC1 [Example 63, 5-[4-(2H-Pyrazol-3-yl)-phenoxy]-2-[4-(2,2,2-trifluoro-ethyl)-piperazin-1-ylmethyl]-1H-benzoimidazole] |
| 0.14 nM | 180 nM | CC(C)N1CCN(Cc2nc3cc(Oc4ccc(-c5ccn[nH]5)cc4)ccc3[nH]2)CC1 [Example 64, 2-(4-Isopropyl-piperazin-1-ylmethyl)-5-[4-(2H-pyrazol-3-yl)-phenoxy]-1H-benzoimidazole] |
| 0.15 nM | 180 nM | Cc1noc(C2CCN(Cc3nc4cc(Oc5ccc(-c6ccn[nH]6)cc5)ccc4[nH]3)CC2)n1 [Example 65, 2-[4-(3-Methyl-[1,2,4]oxadiazol-5-yl)-piperidin-1-ylmethyl]-5-[4-(2H-pyrazol-3-yl)-phenoxy]-1H-benzoimidazole] |
| 0.14 nM | 240 nM | O[C@H]1CCN(Cc2nc3ccc(Oc4ccc(-c5ccn[nH]5)cc4)cc3[nH]2)C1 [Example 66, (S)-1-{6-[4-(2H-Pyrazol-3-yl)-phenoxy]-1H-benzoimidazol-2-ylmethyl}-pyrrolidin-3-ol] |
| 1.4 nM | 480 nM | O=C1CCC(c2cn3cc(Oc4ccc(-c5ccn[nH]5)cc4)ccc3n2)CN1 (centres unmarked) [Example 67, 5-{6-[4-(2H-Pyrazol-3-yl)-phenoxy]-imidazo[1,2-a]pyridin-2-yl}-piperidin-2-one] |
| 4.2 nM | 590 nM | O=C1CC[C@H](Oc2ccc3cc(Oc4ccc(-c5ccn[nH]5)cc4)ccc3n2)CN1 [Example 68, (S)-5-{6-[4-(2H-Pyrazol-3-yl)-phenoxy]-quinolin-2-yloxy}-piperidin-2-one] |
| 3.9 nM | 650 nM | O=C(O)c1nc2cc(Oc3ccc(-c4cc[nH]n4)cc3)ccc2[nH]1 [Example 69, 5-[4-(1H-Pyrazol-3-yl)-phenoxy]-1H-benzoimidazole-2-carboxylic acid] |
| 0.16 nM | 230 nM | CC(C)(C)C(=O)N1CCN(Cc2nc3cc(Oc4ccc(-c5ccn[nH]5)cc4)ccc3[nH]2)CC1 [Example 70, 2,2-Dimethyl-1-(4-{5-[4-(2H-pyrazol-3-yl)-phenoxy]-1H-benzoimidazol-2-ylmethyl}-piperazin-1-yl)-propan-1-one] |
| 0.14 nM | 260 nM | OC(C1CCN(Cc2nc3cc(Oc4ccc(-c5ccn[nH]5)cc4)ccc3[nH]2)CC1)C(F)(F)F (centres unmarked) [Example 71, 2,2,2-Trifluoro-1-(1-{5-[4-(2H-pyrazol-3-yl)-phenoxy]-1H-benzoimidazol-2-ylmethyl}-piperidin-4-yl)-ethanol] |
| 0.14 nM | 320 nM | c1cc(-c2ccc(Oc3ccc4[nH]c(CN5CC6(COC6)C5)nc4c3)cc2)[nH]n1 [Example 72, 2-(2-Oxa-6-aza-spiro[3.3]hept-6-ylmethyl)-5-[4-(2H-pyrazol-3-yl)-phenoxy]-1H-benzoimidazole] |
| 0.36 nM | 330 nM | c1cncc(Cc2nc3cc(Oc4ccc(-c5ccn[nH]5)cc4)ccc3[nH]2)c1 [Example 73, 5-[4-(2H-Pyrazol-3-yl)-phenoxy]-2-pyridin-3-ylmethyl-1H-benzoimidazole] |
| 0.099 nM | 67 nM | CC[C@H](C)N(C)Cc1nc2cc(Oc3ccc(-c4ccn[nH]4)cc3)ccc2[nH]1 [Example 74, ((S)-sec-butyl)-methyl-{5-[4-(2H-pyrazol-3-yl)-phenoxy]-1H-benzoimidazol-2-ylmethyl}-amine] |
| 0.24 nM | 84 nM | c1cc(-c2ccc(Oc3ccc4c(cnn4CCN4CCCC4)c3)cc2)[nH]n1 [Example 75, 5-[4-(2H-pyrazol-3-yl)-phenoxy]-1-(2-pyrrolidin-1-yl-ethyl)-1H-indazole] |
| 0.2 nM | 87 nM | CN(Cc1nc2cc(Oc3ccc(-c4ccn[nH]4)cc3)ccc2[nH]1)C[C@@H]1CCCO1 [Example 76, Methyl-{5-[4-(2H-pyrazol-3-yl)-phenoxy]-1H-benzoimidazol-2-ylmethyl}-[(S)-1-(tetrahydro-furan-2-yl)methyl]-amine] |
| 0.099 nM | 88 nM | CN(Cc1nc2cc(Oc3ccc(-c4ccn[nH]4)cc3)ccc2[nH]1)[C@H]1CCOC1 [Example 77, Methyl-{5-[4-(2H-pyrazol-3-yl)-phenoxy]-1H-benzoimidazol-2-ylmethyl}-(S)-tetrahydro-furan-3-yl-amine] |

Reference: patent US9403830B2, “Inhibitors of leukotriene production” (Boehringer Ingelheim International GmbH, priority 2012, dated 2016)
